Test results taken from patent US10894885B2, “Crosslinkable composition and method for producing a coated article” (HWK KRONBICHLER GMBH, priority 2016, dated 2021).

Test: Surface tension at a suspended drop (Drop Shape Analyser DSA 25)
Type: physicochemical
Details: 23.5-25.0° C., ten measurements
Method: The surface tension was determined at a suspended drop using a “Drop Shape Analyser DSA 25” of the Krüss corporation. The measurements were performed at temperatures between 23.5 and 25.0° C. and at a relative humidity of approximately 15-30%. The sample was measured a total of ten times. The standard deviation is marked by s in Table 4 shown below.

C=Cn1cc[n+](CCC(F)(F)C(F)(F)C(F)(F)C(F)(F)C(F)(F)C(F)(F)F)c1.[Cl-] [3-(1H,1H,2H,2H-perfluorooctyl)-1-vinyl-1H-imidazoliumchloride]
OFS (surface tension) (c 0.5 w/w % in water): 21.94 mN/m
OFS (surface tension) (c 1 w/w % in water): 20.58 mN/m
